# US6030960A, “Method of treating hepatitis virus infections” (priority 1998, dated 2000)
# “And” between values parts separate entries of the source, which are not always exact repeats. Identical values can stand only once.
# Key:
# Assay type in all cases: cell-based
# [1] = Cytotoxicity of alkyl lipids, neutral red dye uptake (Table 1); conditions: human, hep-g2 cells
# Text: (§1) Initially, evaluations of the alkyl lipids were done to determine whether the compounds were cytotoxic to the cells at concentrations having anti-HBV activity. The assay methodology is szt forth in Korba and Germ, Antiviral Res., 19, 55-70 (1992), incorporated by reference herein. Briefly, these cell cytotoxicity evaluations were done in 96-well plates seeded with HEP-G2 cell monolayers. The hepatoblastoma cell line HEP-G2 transfected with a plasmid carrying the gene that confers resistance to […] and four 5'-3' tandem copies of the Hepatitis B virus genome was obtained from Dr. George Acs. Proc. Natl. Acad. Sci. USA, 84, 1005-1009 (1987). Serial concentrations of compound were added to the RPMI-1640 growth medium and the growth medium was added to the 96-well plates containing the cell monolayers. The cells were incubated for a total of nine days at 37° C. The compound-containing medium was periodically replaced. Each compound was tested at four serial concentrations in triplicate. After nine days of treatment and incubation, 0.01% neutral red dye (Sigma, Inc.) was added to the overlay medium. Cell cytotoxicity was quantitated by measuring the average A510. Values in Table 1 represent the percentage of average A510 values (±standard deviation) relative to nine non-treated control wells.
# Hepatitis B virus [2] = assay: Anti-hepatitis B virus activity in HEP-G2 cells persistently infected with HBV (Table 2); conditions: 10 μM; for activity at 10 µM: Hepatitis B virus, HepG2, 216 h, 9 days treatment
# Method: HEP-G2 cells persistently infected with HBV were treated daily with fresh D-MEM containing 20% FBS and 10 μM compound. After 9 days incubation and treatment, the overlay medium was harvested to assay the quantity of Hepatitis B virus s antigen (HBsAg) and HBeAg by EIA (Abbott Laboratories). The overlay medium was diluted to levels of antigen in the linear range of the assay. Standard curves using dilutions of positive HBsAg and HBeAg controls were included in each assay. Virion DNA was assayed using the method set forth in Korba and Gerin, Antiviral Res., 19, 5,5-70 (1992), incorporated by reference herein. HBV DNA was extracted from the overlay medium containing virus particles and analyzed by a slot-blot hybridization technique using ^32 P-labelled 3.2 Kb Eco R1 HBV DNA fragment by comparisons to HBV standards present on nitrocellulose filters using an AMBIS beta scanner. EC90 values (90% effective concentration, i.e., drug concentration which induces a 90% decrease in the levels of HBV DNA replication intermediates in treated versus control cells) were calculated by linear regression analysis. The relative levels of HBsAg, HBeAg and virion DNA were calulated as a percentage of the average levels obtained from the untreated controls.
# [3] = Cytotoxicity in HBV persistently infected human HEP G2 cells, neutral red dye uptake (Table 5); conditions: human, hep-g2 cells, % of Control Neutral Red Dye Uptake
# Text: as §1
# (§2) An analysis was periormed to determine the cytotoxicity of the following compounds in human HEP-G2 cells persistently infected with HBV: CP-51, CP-49, CP-9, CP-126, lyso PAF and CP-7. 2'-3'-Dideoxycytidine (ddC) was used as a control in this cytotoxicity analysis. The toxicity analyses were performed in 96-well flat bottomed tissue culture plates following the same procedure set forth in Example 6 above. Each compound was tested at four concentrations, each in triplicate cultures. Uptake of neutral red dye was used to determine the relative level of toxicity. The absorbance of internalized dye at […] (A510) was used for the quantitative analysis.
# (§3) Values are presented as a percentage of the average A510 values (± standard deviations) in ninz separate cultures of untreated cells maintained on the same 96-well plate as the test compounds. The percentage of dye uptake in the nine control cultures was 100±1.
# [4] = system: HEP G2 cells persistently infected with HBV; assay: as above
# Text: as §1, §2, §3
# Hepatitis B virus [5] = assay: Effect of alkyl lipids on HBV replication in HBV persistently infected human HEP G2 cells (Table 6); conditions: for Intracellular HBV DNA, Mono (episomal 3.2-3.8 Kb HBV genomes) / Intracellular HBV DNA, RI (replication intermediates): nine days
# Method: Cells were treated with a particular compound for nine days at 37° C. Analysis of intracellular HEIV DNA was done 24 hours following the ninth day of treatment. […] The levels of integrated HBV DNA in each cellular DNA preparation were used to calculate the levels of episomal 3.2-3.8 Kb HBV genomes (Mono) and HBV DNA replication intermediates (RI). A zero value indicates an undetectable level of HBV virion DNA. The sensitivity cut-off was 0.1 pg DNA/ml of culture medium.
# Hepatitis B virus [6] = assay: Effect on synthesis of antigen markers in persistently infected human HEP G2 cell cultures (Table 7); conditions: for activity at 10 µM: Hepatitis B virus, HepG2, 216 h
# Method: Cells were treated with compound for nine days at 37° C. The overlay medium was harvested to measure levels of HBsAg, HBeAg and virion DNA. HBsAg and HBeAg were assayed by EIA (Abbott Laboratories). Virion DNA levels were measured as described in section B above.
smiles,measurement,setting,value
CCCCCCCCCCCCCCCC(=O)NCC(COP(=O)([O-])OCC[N+](C)(C)C)OC (centres unmarked) [CP-48],"cytotoxicity at 216 h, 30 µM",[1],39%
same,"viability at 216 h, 3 µM",[1],102 ± 1%
same,"viability at 216 h, 10 µM",[1],97 ± 1%
same,"viability at 216 h, 30 µM",[1],61 ± 2%
same,"viability at 216 h, 100 µM",[1],24 ± 1%
same,activity against HBV-induced virion DNA and HBeAg syntheses,Hepatitis B virus [2]; in words,no significant activity
same,activity at 10 µM,Hepatitis B virus [2]; read-out: Relative Level of HBeAg,88%
same,activity at 10 µM,Hepatitis B virus [2]; read-out: Relative Level of HBsAg,73%
same,activity at 10 µM,Hepatitis B virus [2]; read-out: Relative Level of Virion DNA,96%
"CCCCCCCCCCCCCCCCSCCOP(=O)([O-])OCC[N+](C)(C)C [CP-9, 2-hexadecylthio-1-ethylphosphocholine]","viability at 216 h, 3 µM",[3],100 ± 1%
same,"viability at 216 h, 10 µM",[3],99 ± 2%
same,"viability at 216 h, 30 µM",[3],86 ± 2%
same,"viability at 216 h, 100 µM",[3],45 ± 2%
same,Cell toxicity (greater than 50% depression of dye uptake),[4],did not occur
same,HBV Virion DNA,"Hepatitis B virus [5]; 1 μM, Day 0",59 pg/ml Culture Medium and 53 pg/ml Culture Medium and 60 pg/ml Culture Medium and 58 pg/ml Culture Medium and 50 pg/ml Culture Medium and 55 pg/ml Culture Medium and 65 pg/ml Culture Medium
same,HBV Virion DNA,"Hepatitis B virus [5]; 1 μM, Day 3",66 pg/ml Culture Medium and 60 pg/ml Culture Medium and 82 pg/ml Culture Medium and 55 pg/ml Culture Medium and 52 pg/ml Culture Medium and 64 pg/ml Culture Medium and 90 pg/ml Culture Medium and 63 pg/ml Culture Medium
same,HBV Virion DNA,"Hepatitis B virus [5]; 1 μM, Day 6",57 pg/ml Culture Medium and 52 pg/ml Culture Medium and 88 pg/ml Culture Medium and 78 pg/ml Culture Medium and 83 pg/ml Culture Medium and 91 pg/ml Culture Medium and 64 pg/ml Culture Medium
same,HBV Virion DNA,"Hepatitis B virus [5]; 1 μM, Day 9",69 pg/ml Culture Medium and 71 pg/ml Culture Medium and 94 pg/ml Culture Medium and 76 pg/ml Culture Medium and 80 pg/ml Culture Medium and 92 pg/ml Culture Medium
same,"Intracellular HBV DNA, Mono (episomal 3.2-3.8 Kb HBV genomes)",Hepatitis B virus [5]; 1 μM,2.1 pg/μg Cell DNA and 2.6 pg/μg Cell DNA and 2.3 pg/μg Cell DNA and 2.0 pg/μg Cell DNA and 2.2 pg/μg Cell DNA and 2.4 pg/μg Cell DNA
same,"Intracellular HBV DNA, RI (replication intermediates)",Hepatitis B virus [5]; 1 μM,53 pg/μg Cell DNA and 82 pg/μg Cell DNA and 67 pg/μg Cell DNA and 60 pg/μg Cell DNA and 54 pg/μg Cell DNA and 64 pg/μg Cell DNA and 66 pg/μg Cell DNA
same,HBV Virion DNA,"Hepatitis B virus [5]; 10 μM, Day 0",60 pg/ml Culture Medium and 66 pg/ml Culture Medium and 61 pg/ml Culture Medium and 52 pg/ml Culture Medium
same,HBV Virion DNA,"Hepatitis B virus [5]; 10 μM, Day 3",52 pg/ml Culture Medium and 68 pg/ml Culture Medium and 57 pg/ml Culture Medium and 60 pg/ml Culture Medium
same,HBV Virion DNA,"Hepatitis B virus [5]; 10 μM, Day 6",33 pg/ml Culture Medium and 40 pg/ml Culture Medium and 39 pg/ml Culture Medium and 41 pg/ml Culture Medium
same,HBV Virion DNA,"Hepatitis B virus [5]; 10 μM, Day 9, 0 = undetectable, cut-off 0.1 pg DNA/ml",10 pg/ml Culture Medium and 14 pg/ml Culture Medium and 11 pg/ml Culture Medium
same,"Intracellular HBV DNA, Mono (episomal 3.2-3.8 Kb HBV genomes)",Hepatitis B virus [5]; 10 μM,2.3 pg/μg Cell DNA and 2.2 pg/μg Cell DNA
same,"Intracellular HBV DNA, RI (replication intermediates)",Hepatitis B virus [5]; 10 μM,13 pg/μg Cell DNA and 14 pg/μg Cell DNA and 17 pg/μg Cell DNA and 12 pg/μg Cell DNA
same,inhibition of HBV replication,Hepatitis B virus [5]; in words,moderately inhibitory of HBV replication
same,Relative Level of HBeAg,"Hepatitis B virus [6]; 10 μM, nine days, 12960 min",57 % of Untreated Control
same,Relative Level of HBsAg,"Hepatitis B virus [6]; 10 μM, nine days, 12960 min",64 % of Untreated Control
same,Relative Level of Virion DNA,"Hepatitis B virus [6]; 10 μM, nine days, 12960 min",16 % of Untreated Control
same,activity at 10 µM,"Hepatitis B virus [6]; 10 μM, nine days, read-out: Relative Level of HBeAg",53%
same,activity at 10 µM,"Hepatitis B virus [6]; 10 μM, nine days, read-out: Relative Level of HBsAg",68%
same,activity at 10 µM,"Hepatitis B virus [6]; 10 μM, nine days, read-out: Relative Level of Virion DNA",13%
same,effect on HBsAg levels released into the culture medium,Hepatitis B virus [6]; in words,None of the compounds tested
same,reduction in HBeAg and virion DNA levels,Hepatitis B virus [6]; in words,caused a reduction
